These results are taken from patent US9187762B2, “Compositions and methods comprising sequences having hydroxyphenylpyruvate dioxygenase (HPPD) activity” (PIONEER HI-BRED INTERNATIONAL, INC., priority 2010, dated 2015).

The subject of one data set is soybean plants. The experiment in a line: Herbicide spray tests of transgenic HPPD soy plants (T1/T2) with multiple HPPD-inhibitor herbicides, visual injury. The settings on record: for Soybean Response (% Injury): Elite Line Nontransgenic, foliar, V1 stage; for Soybean Response (% Injury), Null: T1 soybean PHP45921A D0223903 SEQ ID NO: 3, null segregants; for Soybean Response (% Injury), Positive: T1 soybean PHP45921A D0223903 SEQ ID NO: 3, positive segregants. It is filed as in vivo. The procedure:
T1 plants were evaluated for zygosity. Homozygous single-locus transgenic plants and their corresponding null segregants were identified and T2 true breeding seed was obtained from each. Plants were grown to the V1 to V2 growth stage and then sprayed with the commercial formulation of mesotrione, tembotrione, topramezone, and isoxaflutole. All treatments were applied with nonionic surfactant and ammonium sulfate in a spray volume of 374 L/ha. Multiple rates of each herbicide were applied so a response range could be used to compare the relative tolerance of the different herbicides as well as the relative tolerance of homozygous nulls and positives for each event. The herbicide response for individual treated plants was evaluated by comparing to untreated plants of similar genetic background. Herbicide response ratings were eight days after treatment. Visual injury was on a scale of 0 to 100% injury (0=no effect to 100=dead plant).
T1 soybean plants expressing D0223903 (SEQ ID NO: 3) driven by a synthetic promoter (as described in U.S. Pat. No. 6,072,050) were evaluated with qPCR for the presence of the transgene and null and positive segregants selected. Plants were sprayed at the V1 growth stage with the commercial formulations of mesotrione, tembotrione, topramezone, and isoxaflutole. Two rates of each herbicide were applied foliarly with nonionic surfactant and ammonium sulfate in a spray volume of 374 L/ha. The herbicide response for individual plants was determined by comparing to untreated plants of similar genetic background. Visual injury was on a scale of 0 to 100% injury (0=no effect to 100=dead plant).

A further data set has as its system S. bicolor HPPD. The data set can be described thus: ON/OFF rate ratio insensitivity parameters of HPPD with maize motif substitutions. It is filed as biochemical, Sorghum bicolor. The procedure: [formula] Higher KD (reduced affinity or increased insensitivity) can be attained with a numerically smaller ON rate, a larger OFF rate or both. […] The ratio of the reaction rate with inhibitor to that without inhibitor during the 70 to 90 second interval of the reaction was termed the “ON rate ratio”. […] Incubations with the same concentrations of enzyme but no mesotrione were done in parallel. After 1 hr at room temperature, 5 to 10 ul of the enzyme-inhibitor complex was dispensed into the wells of the assay plate. Reactions were started with the addition of 290 to 295 ul of 25 mM Hepes, pH 7, 2 mM ascorbate, 10 uM FeSO4, 100 uM HPP and 50 nM HGD. The reactions were monitored at 320 nm for 12 min. Reaction velocity accelerates as inhibitor is released from the enzyme until a steady state is reached, during which the reaction velocity is constant. The ratio of the steady state rate in mixtures containing mesotrione (or other herbicidal inhibitor) to the initial velocity of mixtures lacking inhibitor is termed the “OFF rate ratio”. Another parameter to record is the time span required for the reactions with inhibitor to reach the steady state. […] It is not certain that the steady state attained in the OFF rate reactions actually represents an equilibrium where OFF rates are now equal to ON rates. Because substrate and inhibitors bind in the same site, the high concentration of substrate present may competitively trap the inhibitor and prevent it from binding again. To be sure that improvement in ON rates is being taken into account, the ON and OFF rate ratios were multiplied together and the product is termed the “insensitivity parameter”.

Data set [1] concerns maize HPPD. The experiment in a line: HPPD activity, coupled assay with HGD at 320 nm; substrate saturation kinetics (KM, kcat). The settings on record: maize HPPD, wt and variant. The class given is biochemical. From the text:
HPPD catalyzes the conversion of 4-hydroxyphenylpyruvate (HPP) to homogentisate. See, FIG. 1. […] However, the product of the ensuing reaction in tyrosine metabolism, maleylacetoacetate, absorbs strongly at 320 nm. Furthermore, the enzyme catalyzing that reaction is also a dioxygenase having similar mechanism and buffer requirements as HPPD, making homogentisate dioxygenase (HGD) an ideal partner in a coupled assay, as shown.
The HDG gene from Pseudomonas aeruginosa (Amaya (2004) Arch Biochem Biophys 421, 135-142) was cloned into pVER7062 and electroporated into E. coli strain BL21(DE3). The enzyme was produced by methods similar to those described for HPPD. The purified enzyme has a KM for homogentisate of 23 uM and a kcat of 100/sec, properties highly suited for instantly converting the homogentisate produced by HPPD to maleylacetoacetate.
HPPD activity was measured by placing an aliquot (e.g., 6 ul) of the substrate HPP at 50-fold the desired final concentration into the wells of a low UV-absorbing assay plate. Reactions were started by adding a mixture (e.g., 294 ul) containing 25 mM Hepes, pH 7, 2 mM ascorbate, 10 uM FeSO4, 1 to 100 uM HPP, 50 nM HGD and 5 to 240 nM HPPD. Absorbance at 320 nm was monitored continuously in a plate-reading spectrophotometer (Spectramax, Molecular Devices).
The catalytic performance of wild-type HPPD and variants generated by shuffling was assessed by determining the substrate saturation parameters. The Michaelis-Menten kinetics protocol of the Spectramax software was customized for HPP concentrations ranging from 3.33 uM to 100 uM, or up to 1 mM if required. Reaction rates were measured as described above for each concentration of HPP. The software returns values of KM and Vmax using the Lineweaver-Burke transformation of the Michaelis-Menten equation.

Data set [2] has as its system maize HPPD. The data set can be described thus: ON rate ratio, OFF rate ratio and insensitivity parameter with herbicidal HPPD inhibitors. It is filed as biochemical. As to conditions: maize HPPD. The source says:
To devise a parameter for detecting changes in inhibitor binding affinity, KD, one can utilize the relationship between KD and the rates of binding and release of inhibitor to and from the enzyme. [formula] Higher KD (reduced affinity or increased insensitivity) can be attained with a numerically smaller ON rate, a larger OFF rate or both. […] The ratio of the reaction rate with inhibitor to that without inhibitor during the 70 to 90 second interval of the reaction was termed the “ON rate ratio”. […] Incubations with the same concentrations of enzyme but no mesotrione were done in parallel. After 1 hr at room temperature, 5 to 10 ul of the enzyme-inhibitor complex was dispensed into the wells of the assay plate. Reactions were started with the addition of 290 to 295 ul of 25 mM Hepes, pH 7, 2 mM ascorbate, 10 uM FeSO4, 100 uM HPP and 50 nM HGD. The reactions were monitored at 320 nm for 12 min. Reaction velocity accelerates as inhibitor is released from the enzyme until a steady state is reached, during which the reaction velocity is constant. The ratio of the steady state rate in mixtures containing mesotrione (or other herbicidal inhibitor) to the initial velocity of mixtures lacking inhibitor is termed the “OFF rate ratio”. Another parameter to record is the time span required for the reactions with inhibitor to reach the steady state. […] It is not certain that the steady state attained in the OFF rate reactions actually represents an equilibrium where OFF rates are now equal to ON rates. Because substrate and inhibitors bind in the same site, the high concentration of substrate present may competitively trap the inhibitor and prevent it from binding again. To be sure that improvement in ON rates is being taken into account, the ON and OFF rate ratios were multiplied together and the product is termed the “insensitivity parameter”. […] The variants in Table 9 were grouped according to the parameter in which they are improved compared to wild type. The sequence positions are numbered according to the wild-type maize amino acid sequence of SEQ ID 1. Some substitutions are effective in multiple contexts, as discussed in the next section.

Consider `Cc1c(C(=O)c2cnn(C)c2O)ccc(S(C)(=O)=O)c1C1=NOCC1` [Topramezone], for which, in the data set on soybean plants (rate 26.25 g ai/ha), the “Soybean Response (% Injury)” value came out at 78%; the “Soybean Response (% Injury), Null” value turned out to be 75%; the “Soybean Response (% Injury), Positive” value was 5%. In addition, in the data set on soybean plants (rate 52.5 g ai/ha), the “Soybean Response (% Injury)” value is 78%; the “Soybean Response (% Injury), Null” value came to 78%; the “Soybean Response (% Injury), Positive” value is listed as 20%.

For the molecule `CS(=O)(=O)c1ccc(C(=O)C2C(=O)CCCC2=O)c(Cl)c1COCC(F)(F)F` [Tembotrione], in the data set on soybean plants (rate 105 g ai/ha), the “Soybean Response (% Injury)” value amounted to 70%; the “Soybean Response (% Injury), Null” value is recorded as 75%; the “Soybean Response (% Injury), Positive” value came to 40%. Besides, in the data set on soybean plants (rate 210 g ai/ha), the “Soybean Response (% Injury)” value was 78%; the “Soybean Response (% Injury), Null” value amounted to 75%; the “Soybean Response (% Injury), Positive” value was 33%.

As for `CS(=O)(=O)c1ccc(C(=O)C2C(=O)CCCC2=O)c([N+](=O)[O-])c1` [Mesotrione], in the data set with soybean plants (rate 105 g ai/ha), the “Soybean Response (% Injury)” value was 65%; the “Soybean Response (% Injury), Null” value turned out to be 80%; the “Soybean Response (% Injury), Positive” value worked out at 10%. In the data set on soybean plants (rate 210 g ai/ha), the “Soybean Response (% Injury)” value amounted to 75%; the “Soybean Response (% Injury), Null” value came out at 83%; the “Soybean Response (% Injury), Positive” value turned out to be 20%.

Regarding `CS(=O)(=O)c1cc(C(F)(F)F)ccc1C(=O)c1cnoc1C1CC1` [Isoxaflutole], in the data set with soybean plants (rate 13.12 g ai/ha), the “Soybean Response (% Injury)” value is recorded as 70%; the “Soybean Response (% Injury), Null” value was determined as 80%; the “Soybean Response (% Injury), Positive” value was found to be 15%. In the data set on soybean plants (rate 26.25 g ai/ha), the “Soybean Response (% Injury)” value came to 72%; the “Soybean Response (% Injury), Null” value is given as 78%; the “Soybean Response (% Injury), Positive” value came to 5%.

B1: GE010883: Sorghum bicolor variant HPPD with maize motif substitutions, SEQ ID NO: 459 (protein)
chain: MPPTPTTAAATGAAVAAASAEQAAFRLVGHRNFVRVNPRSDRFHTLAFHHVELWCADAASAAGRFSFGLGAPLAARSDLSTGNTAHASLLLRSGALAFLFTAPYAHGADAATASLPSFSAAEARRFAADHGLAVRAVALRVADAEDAFRASVAAGARPAFEPVELGLGFRLAEVELYGDVVLRYVSYPDDADASFLPGFVGVTSPGAADYGLRRFDHIVGNVPELAPAAAYMAGFTGFHEFAEFTAEDVGTTESGLNSMALANNAENVLLPLNEPVHGTKRRSQIQTYLDHHGGPGVQHIALASDDVLRTLREMQARSAMGGFEFLPPPLSEYYDGVRRCAGDVLTEAQIKECQELGVMVDRDDQGVLLQIFTKPVGDRPTLFLEIIQRIGCMEKDEKGQEYQKGGCGGFGKGNFGQLFKSIEDYEKSLEAKQAAAAQGS
modifications: HPPD variant
For B1, the figures for the “improvement of insensitivity vs native protein” value with S. bicolor HPPD (mesotrione) and in the data set with S. bicolor HPPD (tembotrione) were 6.13 fold and 7.71 fold, respectively.

B2: SEQ ID NO: 1 (protein)
chain: MGPTPTAAAAGAAVAAASAAEQAAFRLVGHRNFVRFNPRSDRFHTLAFHHVELWCADAASAAGRFSFGLGAPLAARSDLSTGNSAHASLLLRSGSLSFLFTAPYAHGADAATAALPSFSAAAARRFAADHGLAVRAVALRVADAEDAFRASVAAGARPAFGPVDLGRGFRLAEVELYGDVVLRYVSYPDGAAGEPFLPGFEGVASPGAADYGLSRFDHIVGNVPELAPAAAYFAGFTGFHEFAEFTTEDVGTAESGLNSMVLANNSENVLLPLNEPVHGTKRRSQIQTFLDHHGGPGVQHMALASDDVLRTLREMQARSAMGGFEFMAPPTSDYYDGVRRRAGDVLTEAQIKECQELGVLVDRDDQGVLLQIFTKPVGDRPTLFLEIIQRIGCMEKDEKGQEYQKGGCGGFGKGNFSQLFKSIEDYEKSLEAKQAAAAAAAQGS
modifications: Zea mays
By Km is commonly meant the concentration of substrate that gives half-maximal velocity. In the case of B2, in the data set on maize HPPD [1], the Km stood at 5.2 µM and the kcat is recorded as 201. In the data set with maize HPPD [2] (Mesotrione), the OFF ratio worked out at 0.255, the ON ratio came to 0.189 and the “ON × OFF Value” is 0.048. In the data set on maize HPPD [2] (Tembotrione), the OFF ratio was 0.037, the ON ratio is recorded as 0.232 and the “ON × OFF Value” amounted to 0.0087.
